Key:
male CD rats = assay: Acute toxicity in male CD rats; format: in vivo
Description: (§1) The acute toxicity of 12-imidazolyl-1-dodecanol (substance 1) and 12-(1)-imidazolyl-dodecane (substance 2) was tested in male CD rats. For 12-imidazolyl-1-dodecanol the result was an LD50 (14 days) of 1,000 mg/kg, b.w., p.o.; and for 12-(1)-imidazolyl-dodecane an LD50 (14 days) of 1,000 mg/kg b.w., p.o.

HepG2 (liver cells) = assay: Antineoplastic effect: cancer cell proliferation, cell count after four day incubation; format: cell-based; settings: read-out: half maximum inhibitory concentration IC50 (cancer cell proliferation)
Description: (§2) To this end, four cancer cell lines were seeded into “24 well plates” and allowed to grow for 24 hours. Then a wide array of the concentrations of the test substance 12-imidazolyl-1-dodecanol, dissolved in DMSO, was added to the cell suspensions. The DMSO concentration in the cell medium was 0.01%. […] In all cases a strong inhibition of cancer cell proliferation was determined.
(§3) The following half maximum inhibitory concentrations—IC50 values—of 12-imidazolyl-1-dodecanol were determined: […]

PC-3 (prostate cells) = assay: as above; format: cell-based; settings: PC-3, four day incubation, read-out: half maximum inhibitory concentration IC50 (cancer cell proliferation)
Description: as §2, §3

Panc-1 (pancreas cells) [1] = assay: as above; format: cell-based; settings: Panc-1, four day incubation, read-out: half maximum inhibitory concentration IC50 (cancer cell proliferation)
Description: as §2, §3

[2] = tested on: SW620 (large intestine cells); assay: as above; format: cell-based; settings: read-out: half maximum inhibitory concentration IC50 (cancer cell proliferation)
Description: as §2, §3

[3] = tested on: MRC-5 (lung fibroblast cells); assay: LDH cytotoxicity test; format: cell-based; settings: MRC-5, LDH cytotoxicity test
Description: (§4) The half maximum cytotoxicity of 12-imidazolyl-1-dodecanol was determined with the LDH cytotoxicity test.

Panc-1 (pancreas cells) [4] = assay: LDH cytotoxicity test; format: cell-based; settings: Panc-1, LDH cytotoxicity test
Description: as §4

HepG2 liver cancer cells = assay: Migration test of HepG2 cells in collagen matrix; format: cell-based; settings: for drop of migratory activity of the cells: control migratory activity 15%, 900 minutes; for Mean migratory activity: control 15%
Description: Migration test conditions: HepG2 liver cancer cells were embedded in a collagen matrix. Thirty individual cells were inspected continuously by photographic means for 900 minutes. The average percentage of migrating cells was determined. Result 2: […]

cytochrome P450 [5] = assay: In vitro inhibition of cytochrome P450 activity; format: biochemical; settings: for in vitro inhibition of cytochrome P450 activity: compared with 10-undecinyl acid
cytochrome P450 [6] = assay: In vivo activity (cytochrome P450 inhibition)
[7] = Acute toxicity in male CD rats; format: in vivo; settings: male, CD, rat, in vivo, po
Description: as §1

[8] = male, CD, rat, in vivo, po, 14 days

Q: With 12-imidazolyl-1-dodecanol as the compound, how does the First intolerance reaction (male CD rats; male CD rats, p.o.) read?
A: The First intolerance reaction was “substance 1: 1,000 mg/kg b.w., p.o”.

Q: And the “No effect at the dose rate” value (male CD rats; male CD rats, p.o.)?
A: The value was “substance 1: 500 mg/kg b.w., p.o”.

Q: And the “LD50 (14 days)” value (male CD rats; male CD rats, p.o., 14 days)?
A: Its value is 1,000 mg/kg, b.w.

Q: And the IC50 (HepG2 (liver cells))?
A: Its IC50 is 50 nM.

Q: What about the IC50 (PC-3 (prostate cells)) of the same compound?
A: Its IC50 is 50 nM.

Q: What about the IC50 (Panc-1 (pancreas cells) [1]) of the same compound?
A: The IC50 was 50 nM.

Q: What about the IC50 [2] of the same compound?
A: Its IC50 is 100 nM.

Q: And the half maximum cytotoxicity [3]?
A: Its half maximum cytotoxicity is 500 µM.

Q: And the half maximum cytotoxicity (Panc-1 (pancreas cells) [4])?
A: Its half maximum cytotoxicity is 500 µM.

Q: What about the “half maximum cytotoxicity (as restated in text)” value (Panc-1 (pancreas cells) [4]) of the same compound?
A: Its value is 500 μm.

Q: What about the “drop of migratory activity of the cells” value (HepG2 liver cancer cells; 1 μM in matrix medium) of the same compound?
A: The value was 50%.

Q: What about the “drop of migratory activity of the cells” value (HepG2 liver cancer cells; 10 μM in matrix medium) of the same compound?
A: Its value is 75%.

Q: What about the Mean migratory activity (HepG2 liver cancer cells; insulin and 12-imidazolyl-1-dodecanol (10 μl)) of the same compound?
A: Its Mean migratory activity is 15%.

Q: And the “effect on insulin-induced increase in migratory activity” value (HepG2 liver cancer cells; with insulin, after 450 min. observation time)?
A: Its value is “blocks this increase completely”.

Q: And the “mean migratory activity below that of the control group” value (HepG2 liver cancer cells; with insulin, after 900 minutes)?
A: Its value is 13%.

Q: For C#CCCCCCCCCCCCCCCCC(=O)O [17-octadecinyl-1-acid], which effectiveness in vitro (cytochrome P450 [5]) is on record?
A: The effectiveness in vitro was “especially effective in vitro”.

Q: Which “in vitro inhibition of cytochrome P450 activity” value (cytochrome P450 [5]) does the source give for C#CCCCCCCCCCOS(=O)(=O)O [10-undecinyl-sulfate] here?
A: The value was “comparably high inhibition”.

Q: And the “in vivo activity compared with 10-undecinyl acid” value (cytochrome P450 [6])?
A: The value was “far superior”.

Q: With C#CCCCCCCCCC(C)(C)C(=O)O [2,2-dimethyl-11-dodecinyl acid] as the compound, how does the “in vitro inhibition of cytochrome P450 activity” value (cytochrome P450 [5]) read?
A: The value was “comparably high inhibition”.

Q: What about the “in vivo activity compared with 10-undecinyl acid” value (cytochrome P450 [6]) of the same compound?
A: The value was “far superior”.

Q: What does the source list for “insulin: insulin added to HepG2 cells to stimulate migratory activity [reference compound]”?
A: Mean migratory activity (HepG2 liver cancer cells; insulin (100 ng/ml) alone): 38%; increase in the migratory activity (times) (HepG2 liver cancer cells; insulin versus control): 2.5 times

Q: Which LD50 at 14 days [7] does the source give for CCCCCCCCCCCCn1ccnc1 [12-(1)-imidazolyl-dodecane] here?
A: The LD50 at 14 days was 1000 mg/kg.

Q: And the First intolerance reaction (male CD rats; [8])?
A: Its First intolerance reaction is “substance 2: 500 mg/kg b.w., p.o”.

Q: And the “No effect at the dose rate” value (male CD rats; [8])?
A: The value was “substance 2: 250 mg/kg b.w., p.o”.

From patent US8153676B2, “Use of compounds of formula A-R-Xo pharmaceutically acceptable salts thereof for producing a pharmaceutically preparations” (priority 2006, dated 2012)
